Patent publication US20250281464A1, “TREATMENT OF PATHOGENIC NEISSERIA SP. INFECTION WITH TRIAZOLE ANTIFUNGAL AGENTS” (Virginia Tech Intellectual Properties, Inc., priority 2022, published 2025)
In brackets after ≈: the same amount, converted by molar mass. Like-named read-outs stand apart in the source and are kept apart here.

How the values were obtained:
N. gonorrhoeae isolates = assay: MIC against panel of N. gonorrhoeae clinical isolates; assay type: cell-based, Neisseria gonorrhoeae; settings: for MIC50 / MIC90 / MIC: Neisseria gonorrhoeae; for MIC50: read-out: MIC50; for MIC90: read-out: MIC90; for MIC: 103 N. gonorrhoeae isolates, read-out: highest MIC value
[1] = test system: resistant N. gonorrhoeae isolates; assay: MIC against resistant N. gonorrhoeae isolates by agar dilution; assay type: cell-based, Neisseria gonorrhoeae
L. crispatus = assay: MIC against commensal vaginal Lactobacillus strains; assay type: cell-based, Lactobacillus crispatus; settings: for MIC: Lactobacillus crispatus; for MIC Range: Table 6, L. crispatus (3 strains)
Description: (§1) N. gonorrhoeae pathogenesis greatly depends on colonization of the reproductive tract. One of the natural barriers of such colonization is an intact healthy microbiome. Species of lactobacilli present in the genitourinary tract play a significant role in hindering colonization by Neisseria(1).
(§2) A healthy vaginal microbiome that is dominated by Lactobacillus spp. is less susceptible to N. gonorrhoeae infection and other sexually transmitted diseases (STDs). […] We tested the activity of azoles against important members of healthy vaginal microbiota that inhibit N. gonorrhoeae colonization.

L. gasseri = assay: as above; assay type: cell-based, Lactobacillus gasseri; settings: for MIC: Lactobacillus gasseri; for MIC Range: Table 6, L. gasseri (4 strains)
Description: as §1, §2

L. jensenii = assay: as above; assay type: cell-based, Lactobacillus jensenii; settings: for MIC: Lactobacillus jensenii; for MIC Range: Table 6, L. jensenii (7 strains)
Description: as §1, §2

L. johnsonii = assay: as above; assay type: cell-based, Lactobacillus johnsonii; settings: for MIC: Lactobacillus johnsonii, L. johnsonii HM-643; for MIC Range: Table 6, L. johsonii (2 strains)
Description: as §1, §2

[2] = test system: commensal vaginal lactobacilli strains; assay: MIC against all commensal vaginal Lactobacillus strains tested; assay type: cell-based, Lactobacillus spp.; settings: read-out: MIC
Description: as §1, §2

N. gonorrhoeae [3] = assay: Post-antibiotic effect (PAE) against N. gonorrhoeae; assay type: cell-based, Neisseria gonorrhoeae; settings: 1 h exposure at 10×MIC
Description: Determining the PAE of a new antimicrobial is an important step for dosing and has clinical importance.

[4] = MIC against normal gut microbiota; assay type: cell-based
Description: (§3) Disrupting the intestinal microbiota using broad-spectrum antimicrobial therapy increases the susceptibility of hosts to C. difficile colonization.

Bacteroides dorei = assay: MIC against normal gut microbiota; assay type: cell-based; settings: Bacteroides dorei (2 strains)
Description: as §3

[5] = test system: Bifidobacterium angulatum; assay: MIC against normal gut microbiota; assay type: cell-based; settings: Bifidobacterium angulatum (1 strain)
Description: as §3

Enterococcus faecalis = assay: MIC against normal gut microbiota; assay type: cell-based; settings: Enterococcus faecalis (1 strain)
Description: as §3

Enterococcus faecium = assay: MIC against normal gut microbiota; assay type: cell-based; settings: Enterococcus faecium (1 strain)
Description: as §3

Escherichia coli = assay: MIC against normal gut microbiota; assay type: cell-based; settings: Escherichia coli (1 strain)
Description: as §3

Lactobacillus brevis = assay: MIC against normal gut microbiota; assay type: cell-based; settings: Lactobacillus brevis (1 strain)
Description: as §3

Lactobacillus casei = assay: MIC against normal gut microbiota; assay type: cell-based; settings: Lactobacillus casei (1 strain)
Description: as §3

Lactobacillus rhamnosus = assay: MIC against normal gut microbiota; assay type: cell-based; settings: Lactobacillus rhamnosus (1 strain)
Description: as §3

Staphylococcus aureus = assay: MIC against normal gut microbiota; assay type: cell-based; settings: Staphylococcus aureus (1 strain)
Description: as §3

N. meingitidis = assay: MIC against Neisseria spp.; assay type: cell-based, Neisseria meningitidis; settings: N. meingitidis (5 strains)
N. flavescens = assay: MIC against Neisseria spp.; assay type: cell-based; settings: N. flavescens (1 strain)
Description: (§4) Intrigued by the specificity and potent activity of azoles against N. gonorrhoeae, we evaluated the extent of the azoles' antibacterial activity against other Neisseria species (Table 8).

N. lactamica = assay: MIC against Neisseria spp.; assay type: cell-based; settings: N. lactamica (1 strain)
Description: as §4

N. mucosa = assay: MIC against Neisseria spp.; assay type: cell-based; settings: N. mucosa (1 strain)
Description: as §4

[6] = test system: intracellular N. gonorrhoeae FA1090 in endocervical cells (End1/E6E7); settings: literature statement [1, 3, 5]; cited from earlier work
Bacteroides fragilis = assay: MIC against normal gut microbiota; assay type: cell-based; settings: Bacteroides fragilis (4 strains)
Description: as §3

N. gonorrhoeae [7] = assay: Drug library screen against N. gonorrhoeae; assay type: cell-based, Neisseria gonorrhoeae; settings: Johns Hopkins Clinical Compounds Library, MCE FDA-Approved Drug Library, Pharmakon library; killing in clinical range
Description: To identify drugs capable of killing Neisseria gonorrhoeae, the Johns Hopkins Clinical Compounds Library (1514), the MCE FDA-Approved Drug Library (2441), and the Pharmakon library (1600) were screened against N. gonorrhoeae. Positive hits that are capable of killing Neisseria gonorrhoeae in clinical range were identified (itraconazole, ravuconazole and isavuconazole).

[8] = from single dose; cited from earlier work
[9] = Table 1, 104 N. gonorrhoeae isolates
[10] = Table 3, 103 N. gonorrhoeae isolates with different resistance profiles
[11] = Bacteroides adolescentis (2 strains)
[12] = panel of 84 N. gonorrhoeae clinical isolates

CO/N=C(\C(=O)N[C@@H]1C(=O)N2C(C(=O)O)=C(CSc3nc(=O)c(=O)[nH]n3C)CS[C@H]12)c1csc(N)n1 [Ceftriaxone]
MIC50 (N. gonorrhoeae isolates; [9]): 0.03 µg/mL (≈ 0.0541 µM) | MIC90 (N. gonorrhoeae isolates; [9]): 0.06 µg/mL (≈ 0.108 µM) | MIC50 (N. gonorrhoeae isolates; [10]): 0.03 µg/mL (≈ 0.0541 µM) | MIC90 (N. gonorrhoeae isolates; [10]): 0.06 µg/mL (≈ 0.108 µM) | MIC (N. gonorrhoeae isolates): 2 µg/mL (≈ 3.61 µM) | MIC Range (N. gonorrhoeae isolates; [9]): 0.001 to 2 µg/mL | MIC Range (N. gonorrhoeae isolates; [10]): 0.001 to 2 µg/mL | MIC ([1]; strain CDC-174, agar dilution): 0.25 µg/mL (≈ 0.451 µM) | MIC ([1]; strain CDC-179, agar dilution): 0.015 µg/mL (≈ 0.027 µM) | MIC ([1]; strain CDC-181, agar dilution): 0.06 µg/mL (≈ 0.108 µM) | MIC ([1]; strain WHO-L, agar dilution): 0.5 µg/mL (≈ 0.902 µM) | MIC ([1]; strain WHO-X, agar dilution): 2 µg/mL (≈ 3.61 µM) | MIC ([1]; strain WHO-Y, agar dilution): 1 µg/mL (≈ 1.8 µM) | MIC ([1]; strain WHO-Z, agar dilution): 0.5 µg/mL (≈ 0.902 µM) | MIC (L. crispatus; L. crispatus HM-103): 2 µg/mL (≈ 3.61 µM) | MIC (L. crispatus; L. crispatus HM-371): 1 µg/mL (≈ 1.8 µM) | MIC (L. crispatus; L. crispatus HM-638): 4 µg/mL (≈ 7.21 µM) | MIC Range (L. crispatus): ≤1 to 2 µg/mL | MIC (L. gasseri; L. gasseri HM-407): ≤ 0.5 µg/mL | MIC (L. gasseri; L. gasseri HM-642): 2 µg/mL (≈ 3.61 µM) | MIC (L. gasseri; L. gasseri HM-644): 1 µg/mL (≈ 1.8 µM) | MIC (L. gasseri; L. gasseri HM-647): 1 µg/mL (≈ 1.8 µM) | MIC Range (L. gasseri): ≤1 µg/mL | MIC (L. jensenii; L. jensenii HM-105): ≤ 0.5 µg/mL | MIC (L. jensenii; L. jensenii HM-372): ≤ 0.5 µg/mL | MIC (L. jensenii; L. jensenii HM-374): 1 µg/mL (≈ 1.8 µM) | MIC (L. jensenii; L. jensenii HM-639): ≤ 0.5 µg/mL | MIC (L. jensenii; L. jensenii HM-640): ≤ 0.5 µg/mL | MIC (L. jensenii; L. jensenii HM-645): ≤ 0.5 µg/mL | MIC (L. jensenii; L. jensenii HM-646): ≤ 0.5 µg/mL | MIC Range (L. jensenii): ≤1 to 2 µg/mL | MIC (L. johnsonii): 2 µg/mL (≈ 3.61 µM) | MIC Range (L. johnsonii): ≤1 µg/mL | MIC ([2]; all species/strains of Lactobacillus tested (Example 2)): < 1 µg/mL | PAE (N. gonorrhoeae [3]; strain FA 1090): 4 h | PAE (N. gonorrhoeae [3]; strain WHO P): 8 h | PAE (N. gonorrhoeae [3]; strain WHO Y): 6 h | MIC Range [4, 11]: 0.125 µg/mL (≈ 0.225 µM) | MIC Range ([4]; Bacteroides breve (2 strains)): 1 to 4 µg/mL | MIC Range ([4]; Bacteroides longum (2 strains)): 4 µg/mL (≈ 7.21 µM) | MIC Range (Bacteroides dorei): 4 to 16 µg/mL | MIC Range [5]: 0.125 µg/mL (≈ 0.225 µM) | MIC Range (Enterococcus faecalis): 8 µg/mL (≈ 14.4 µM) | MIC Range (Enterococcus faecium): 8 µg/mL (≈ 14.4 µM) | MIC Range (Escherichia coli): 0.03 µg/mL (≈ 0.0541 µM) | MIC Range (Lactobacillus brevis): 0.5 µg/mL (≈ 0.902 µM) | MIC Range (Lactobacillus casei): 16 µg/mL (≈ 28.9 µM) | MIC Range (Lactobacillus rhamnosus): 16 µg/mL (≈ 28.9 µM) | MIC Range (Staphylococcus aureus): 2 µg/mL (≈ 3.61 µM) | MIC Range (N. meingitidis): 0.004 to 0.008 µg/mL | MIC Range (N. flavescens): 0.125 µg/mL (≈ 0.225 µM) | MIC Range (N. lactamica): 0.125 µg/mL (≈ 0.225 µM) | MIC Range (N. mucosa): 0.125 µg/mL (≈ 0.225 µM) | ability to clear intracellular N. gonorrhoeae [6]: unable to clear intracellular N. gonorrhoeae

C[C@@H](c1nc(-c2ccc(C#N)cc2)cs1)[C@](O)(Cn1cncn1)c1ccc(F)cc1F [Ravuconazole]
MIC50 (N. gonorrhoeae isolates; [9]): 0.03 µg/mL (≈ 0.0686 µM) | MIC90 (N. gonorrhoeae isolates; [9]): 0.06 µg/mL (≈ 0.137 µM) | MIC50 (N. gonorrhoeae isolates; [10]): 0.03 µg/mL (≈ 0.0686 µM) | MIC90 (N. gonorrhoeae isolates; [10]): 0.06 µg/mL (≈ 0.137 µM) | MIC50 (N. gonorrhoeae isolates; [12]): 0.03 µg/mL (≈ 0.0686 µM) | MIC90 (N. gonorrhoeae isolates; [12]): 0.06 µg/mL (≈ 0.137 µM) | MIC (N. gonorrhoeae isolates): 0.25 µg/mL (≈ 0.571 µM) | MIC Range (N. gonorrhoeae isolates; [10]): 0.002 to 0.25 µg/mL | fold more potent antimicrobial activity than isavuconazole (N. gonorrhoeae isolates; from Table 3 and Table 8): ≥ 125 fold | MIC ([1]; strain CDC-174, agar dilution): 0.25 µg/mL (≈ 0.571 µM) | MIC ([1]; strain CDC-179, agar dilution): 0.06 µg/mL (≈ 0.137 µM) | MIC ([1]; strain CDC-181, agar dilution): 0.25 µg/mL (≈ 0.571 µM) | MIC ([1]; strain WHO-L, agar dilution): 0.25 µg/mL (≈ 0.571 µM) | MIC ([1]; strain WHO-X, agar dilution): 0.25 µg/mL (≈ 0.571 µM) | MIC ([1]; strain WHO-Y, agar dilution): 0.25 µg/mL (≈ 0.571 µM) | MIC ([1]; strain WHO-Z, agar dilution): 0.25 µg/mL (≈ 0.571 µM) | MIC (L. crispatus; L. crispatus HM-103): > 256 µg/mL | MIC (L. crispatus; L. crispatus HM-371): > 256 µg/mL | MIC (L. crispatus; L. crispatus HM-638): > 256 µg/mL | MIC Range (L. crispatus): ≥256 µg/mL | MIC (L. gasseri; L. gasseri HM-407): > 256 µg/mL | MIC (L. gasseri; L. gasseri HM-642): > 256 µg/mL | MIC (L. gasseri; L. gasseri HM-644): > 256 µg/mL | MIC (L. gasseri; L. gasseri HM-647): > 256 µg/mL | MIC Range (L. gasseri): ≥256 µg/mL | MIC (L. jensenii; L. jensenii HM-105): > 256 µg/mL | MIC (L. jensenii; L. jensenii HM-372): > 256 µg/mL | MIC (L. jensenii; L. jensenii HM-374): > 256 µg/mL | MIC (L. jensenii; L. jensenii HM-639): > 256 µg/mL | MIC (L. jensenii; L. jensenii HM-640): > 256 µg/mL | MIC (L. jensenii; L. jensenii HM-645): > 256 µg/mL | MIC (L. jensenii; L. jensenii HM-646): > 256 µg/mL | MIC Range (L. jensenii): ≥256 µg/mL | MIC (L. johnsonii): > 256 µg/mL | MIC Range (L. johnsonii): ≥256 µg/mL | MIC ([2]; Lactobacillus, all strains of lactobacilli (Example 1 text)): > 256 µg/mL | PAE (N. gonorrhoeae [3]; strain FA 1090): 12 h | PAE (N. gonorrhoeae [3]; strain WHO P): >16 h | PAE (N. gonorrhoeae [3]; strain WHO Y): 16 h | MIC Range [4, 11]: >256 µg/mL | MIC Range ([4]; Bacteroides breve (2 strains)): >256 µg/mL | MIC Range ([4]; Bacteroides longum (2 strains)): >256 µg/mL | MIC Range (Bacteroides dorei): >256 µg/mL | MIC Range (Bacteroides fragilis): >256 µg/mL | MIC Range [5]: >256 µg/mL | MIC Range (Enterococcus faecalis): >256 µg/mL | MIC Range (Enterococcus faecium): >256 µg/mL | MIC Range (Escherichia coli): >256 µg/mL | MIC Range (Lactobacillus brevis): >256 µg/mL | MIC Range (Lactobacillus casei): >256 µg/mL | MIC Range (Lactobacillus rhamnosus): >256 µg/mL | MIC Range (Staphylococcus aureus): >256 µg/mL | MIC Range (N. meingitidis): 0.004 to 0.008 µg/mL | MIC Range (N. flavescens): 0.125 µg/mL (≈ 0.286 µM) | MIC Range (N. lactamica): 0.03 µg/mL (≈ 0.0686 µM) | MIC Range (N. mucosa): 0.125 µg/mL (≈ 0.286 µM) | screening outcome (N. gonorrhoeae [7]): Positive hits | half-life [8]: up to 8 days
